The values that follow come from ChEMBL document CHEMBL5370599, “Discovery of a 53BP1 Small Molecule Antagonist Using a Focused DNA-Encoded Library Screen” (J Med Chem, 2023).

The target of data set [1] is T1, Chromobox protein homolog 2 (Homo sapiens, UniProt Q14781).
T1 sequence (Q14781 whole entry): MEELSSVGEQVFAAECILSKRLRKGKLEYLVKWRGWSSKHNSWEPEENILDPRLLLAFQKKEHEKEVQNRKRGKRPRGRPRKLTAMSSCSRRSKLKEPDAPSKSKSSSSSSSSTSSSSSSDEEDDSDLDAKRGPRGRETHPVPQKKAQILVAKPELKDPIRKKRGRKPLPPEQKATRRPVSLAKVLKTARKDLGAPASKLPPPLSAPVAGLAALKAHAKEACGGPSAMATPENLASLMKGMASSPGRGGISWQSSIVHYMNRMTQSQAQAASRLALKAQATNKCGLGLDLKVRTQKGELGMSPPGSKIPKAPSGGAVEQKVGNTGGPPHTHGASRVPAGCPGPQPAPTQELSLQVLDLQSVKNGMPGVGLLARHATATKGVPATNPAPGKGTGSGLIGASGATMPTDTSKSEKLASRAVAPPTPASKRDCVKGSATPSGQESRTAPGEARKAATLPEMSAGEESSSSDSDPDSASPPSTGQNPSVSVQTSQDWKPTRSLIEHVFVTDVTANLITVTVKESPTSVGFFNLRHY
Kind of data set: Displacement of Biotin-p53K381acK382me2 from CBX2 chromodomain (unknown origin) by TR-FRET assay. A general note: In TR-FRET formats the signal depends on donor and acceptor labels being close together.

Data set [2] deals with HEK-293T. Kind of data set: Cytotoxicity against HEK293T cells assessed as reduction in cell viability measured upto 200 uM by celltiterglo 2.0 assay. The class given is toxicity, cell-based. The note with it: human. A general note: ATP-based viability assays read luminescence as a measure of living cells.
Data set [3] concerns the target T2, TP53-binding protein 1 (Homo sapiens, UniProt Q12888). Nature of the data set: Binding affinity to N-terminal his6-tagged 53BP1 tandem tudor domain (1484 to 1603 residues) (unknown origin) expressed in Rosetta2 BL21 (DE3) pLysS competent cells assessed as dissociation constant by ITC analysis. (In general: Isothermal titration calorimetry measures the heat released or taken up as one component is titrated into another.)

Data set [4] deals with T2, TP53-binding protein 1. Particulars: filed as antagonist.
Description: Binding affinity to N-terminal his6-tagged 53BP1 tandem tudor domain (1484 to 1603 residues) (unknown origin) expressed in Rosetta2 BL21 (DE3) pLysS competent cells assessed as change in enthalpy by differential scanning fluorimetry analysis
The target of data set [5] is T2, TP53-binding protein 1. Nature of the data set: Antagonist activity at nanoluc-tagged 53BP1 tandem tudor domain (unknown origin) transfected in HEK293T cells assessed as inhibition of 53BP1-H4 peptide interaction by nanoBRET assay. The class given is cell-based.
Data set [6] deals with T2, TP53-binding protein 1. Nature of the data set: Displacement of Biotin-p53K381acK382me2 from N-terminal his6-tagged 53BP1 (1484 to 1603 residues) (unknown origin) expressed in Rosetta2 BL21 (DE3) pLysS competent cells by TR-FRET assay. The class given is single protein.
The target in data set [7] is Histone-lysine N-methyltransferase SETDB1 (Homo sapiens, UniProt Q15047). Nature of the data set: Displacement of Biotin-p53K381acK382me2 from SETDB1 tandem tudor domain (unknown origin) by TR-FRET assay.
A short description of data set [8]: Kinetic solubility of compound by CLND analysis. It is filed as physicochemical.
Another data set has as its target T3, M-phase phosphoprotein 8 (Homo sapiens, UniProt Q99549).
T3 sequence (Q99549 whole entry): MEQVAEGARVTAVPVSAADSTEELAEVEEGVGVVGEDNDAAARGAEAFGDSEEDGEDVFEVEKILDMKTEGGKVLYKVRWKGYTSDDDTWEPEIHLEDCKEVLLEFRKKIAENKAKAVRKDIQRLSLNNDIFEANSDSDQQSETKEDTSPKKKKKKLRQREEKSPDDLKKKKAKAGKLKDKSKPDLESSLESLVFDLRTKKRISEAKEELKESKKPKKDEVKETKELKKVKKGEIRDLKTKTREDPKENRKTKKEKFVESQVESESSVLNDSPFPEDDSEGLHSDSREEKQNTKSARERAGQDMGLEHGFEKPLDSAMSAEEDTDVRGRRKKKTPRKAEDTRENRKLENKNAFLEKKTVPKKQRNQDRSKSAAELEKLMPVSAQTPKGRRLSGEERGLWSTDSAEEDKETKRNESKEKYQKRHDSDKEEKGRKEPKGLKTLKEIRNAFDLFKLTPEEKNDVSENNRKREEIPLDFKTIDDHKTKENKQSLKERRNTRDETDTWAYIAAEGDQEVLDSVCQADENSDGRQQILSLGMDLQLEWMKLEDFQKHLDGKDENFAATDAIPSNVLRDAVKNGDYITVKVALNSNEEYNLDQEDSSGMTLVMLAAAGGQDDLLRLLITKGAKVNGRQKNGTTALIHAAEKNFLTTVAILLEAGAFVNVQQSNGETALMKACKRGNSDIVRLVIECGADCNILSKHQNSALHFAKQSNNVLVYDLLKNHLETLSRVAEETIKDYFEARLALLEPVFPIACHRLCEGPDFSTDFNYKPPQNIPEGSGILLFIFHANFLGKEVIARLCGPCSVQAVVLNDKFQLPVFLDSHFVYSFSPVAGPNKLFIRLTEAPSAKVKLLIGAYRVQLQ
Kind of data set: Displacement of Biotin-p53K381acK382me2 from MPP8 chromodomain (unknown origin) by TR-FRET assay.

Data set [9] deals with T4, E3 ubiquitin-protein ligase UHRF1 (Homo sapiens, UniProt Q96T88).
T4 sequence (Q96T88 whole entry): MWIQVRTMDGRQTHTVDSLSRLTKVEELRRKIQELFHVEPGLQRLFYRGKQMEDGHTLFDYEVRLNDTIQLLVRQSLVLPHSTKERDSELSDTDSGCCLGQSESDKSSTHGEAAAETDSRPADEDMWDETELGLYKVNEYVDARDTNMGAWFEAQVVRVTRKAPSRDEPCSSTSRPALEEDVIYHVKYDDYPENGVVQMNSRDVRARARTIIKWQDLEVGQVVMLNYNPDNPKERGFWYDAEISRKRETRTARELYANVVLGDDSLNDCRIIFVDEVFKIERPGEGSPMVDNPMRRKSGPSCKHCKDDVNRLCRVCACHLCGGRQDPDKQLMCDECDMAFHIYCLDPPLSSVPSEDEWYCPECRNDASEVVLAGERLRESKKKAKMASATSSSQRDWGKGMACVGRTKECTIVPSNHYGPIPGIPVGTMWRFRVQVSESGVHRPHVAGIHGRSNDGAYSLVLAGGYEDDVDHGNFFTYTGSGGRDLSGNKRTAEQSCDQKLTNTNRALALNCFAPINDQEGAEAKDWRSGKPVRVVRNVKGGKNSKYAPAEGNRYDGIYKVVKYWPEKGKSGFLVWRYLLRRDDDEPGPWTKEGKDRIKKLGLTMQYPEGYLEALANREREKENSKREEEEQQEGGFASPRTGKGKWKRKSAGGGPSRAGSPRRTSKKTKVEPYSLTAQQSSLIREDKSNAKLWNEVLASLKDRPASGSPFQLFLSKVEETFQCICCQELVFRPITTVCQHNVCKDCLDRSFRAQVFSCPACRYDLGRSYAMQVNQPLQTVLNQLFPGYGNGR
Nature of the data set: Displacement of Biotin-p53K381acK382me2 from UHRF1 tandem tudor domain (unknown origin) by TR-FRET assay.

The target in data set [10] is T2, TP53-binding protein 1. Kind of data set: Binding affinity to N-terminal his6-tagged 53BP1 (1484 to 1603 residues) (unknown origin) expressed in Rosetta2 BL21 (DE3) pLysS competent cells assessed as dissociation constant by SPR analysis.
For data set [11], the target named is T5, Chromodomain Y-like protein 2 (Homo sapiens, UniProt Q8N8U2).
T5 sequence (Q8N8U2 whole entry): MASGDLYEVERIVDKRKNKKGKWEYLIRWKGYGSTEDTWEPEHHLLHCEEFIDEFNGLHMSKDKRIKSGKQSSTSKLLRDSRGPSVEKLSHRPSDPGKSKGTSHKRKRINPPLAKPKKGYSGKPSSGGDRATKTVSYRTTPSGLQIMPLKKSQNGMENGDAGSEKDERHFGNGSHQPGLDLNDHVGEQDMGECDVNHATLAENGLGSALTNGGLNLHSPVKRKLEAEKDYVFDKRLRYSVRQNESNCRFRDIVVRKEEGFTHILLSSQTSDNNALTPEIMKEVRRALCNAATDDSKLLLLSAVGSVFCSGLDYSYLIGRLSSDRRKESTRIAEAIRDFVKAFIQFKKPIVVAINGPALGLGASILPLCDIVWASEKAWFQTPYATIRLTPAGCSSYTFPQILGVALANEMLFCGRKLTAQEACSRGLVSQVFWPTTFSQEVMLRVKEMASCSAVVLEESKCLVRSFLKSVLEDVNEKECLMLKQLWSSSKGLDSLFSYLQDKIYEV
Nature of the data set: Displacement of Biotin-p53K381acK382me2 from CDYL2 (unknown origin) by TR-FRET assay.

Data set [12] deals with TERT-RPE1. Kind of data set: Cytotoxicity against human RPE-1 cells assessed as reduction in cell viability measured upto 200 uM by celltiterglo 2.0 assay. It is filed as toxicity, cell-based. The note with it: tert-rpe1, 200 µM.
Data set [13] is described as follows: Displacement of Biotin-p53K381acK382me2 from KDM7B (unknown origin) by TR-FRET assay. The arrangement: species or system Homo sapiens.
The target in another data set is PHD finger protein 19 (Homo sapiens, UniProt Q5T6S3). Nature of the data set: Displacement of Biotin-p53K381acK382me2 from PHF19 (unknown origin) by TR-FRET assay.
Data set [14] has as its system TERT-RPE1. Nature of the data set: Cytotoxicity against human RPE-1 cells assessed as reduction in cell viability by celltiterglo 2.0 assay. It is filed as toxicity, cell-based.
In data set [15] the test system is HEK-293T. Kind of data set: Cytotoxicity against HEK293T cells assessed as reduction in cell viability by celltiterglo 2.0 assay. The class given is toxicity, cell-based. Particulars: human.

Some results are limits rather than exact numbers.

T2 sequence (Q12888 whole entry, the tested form may be a part): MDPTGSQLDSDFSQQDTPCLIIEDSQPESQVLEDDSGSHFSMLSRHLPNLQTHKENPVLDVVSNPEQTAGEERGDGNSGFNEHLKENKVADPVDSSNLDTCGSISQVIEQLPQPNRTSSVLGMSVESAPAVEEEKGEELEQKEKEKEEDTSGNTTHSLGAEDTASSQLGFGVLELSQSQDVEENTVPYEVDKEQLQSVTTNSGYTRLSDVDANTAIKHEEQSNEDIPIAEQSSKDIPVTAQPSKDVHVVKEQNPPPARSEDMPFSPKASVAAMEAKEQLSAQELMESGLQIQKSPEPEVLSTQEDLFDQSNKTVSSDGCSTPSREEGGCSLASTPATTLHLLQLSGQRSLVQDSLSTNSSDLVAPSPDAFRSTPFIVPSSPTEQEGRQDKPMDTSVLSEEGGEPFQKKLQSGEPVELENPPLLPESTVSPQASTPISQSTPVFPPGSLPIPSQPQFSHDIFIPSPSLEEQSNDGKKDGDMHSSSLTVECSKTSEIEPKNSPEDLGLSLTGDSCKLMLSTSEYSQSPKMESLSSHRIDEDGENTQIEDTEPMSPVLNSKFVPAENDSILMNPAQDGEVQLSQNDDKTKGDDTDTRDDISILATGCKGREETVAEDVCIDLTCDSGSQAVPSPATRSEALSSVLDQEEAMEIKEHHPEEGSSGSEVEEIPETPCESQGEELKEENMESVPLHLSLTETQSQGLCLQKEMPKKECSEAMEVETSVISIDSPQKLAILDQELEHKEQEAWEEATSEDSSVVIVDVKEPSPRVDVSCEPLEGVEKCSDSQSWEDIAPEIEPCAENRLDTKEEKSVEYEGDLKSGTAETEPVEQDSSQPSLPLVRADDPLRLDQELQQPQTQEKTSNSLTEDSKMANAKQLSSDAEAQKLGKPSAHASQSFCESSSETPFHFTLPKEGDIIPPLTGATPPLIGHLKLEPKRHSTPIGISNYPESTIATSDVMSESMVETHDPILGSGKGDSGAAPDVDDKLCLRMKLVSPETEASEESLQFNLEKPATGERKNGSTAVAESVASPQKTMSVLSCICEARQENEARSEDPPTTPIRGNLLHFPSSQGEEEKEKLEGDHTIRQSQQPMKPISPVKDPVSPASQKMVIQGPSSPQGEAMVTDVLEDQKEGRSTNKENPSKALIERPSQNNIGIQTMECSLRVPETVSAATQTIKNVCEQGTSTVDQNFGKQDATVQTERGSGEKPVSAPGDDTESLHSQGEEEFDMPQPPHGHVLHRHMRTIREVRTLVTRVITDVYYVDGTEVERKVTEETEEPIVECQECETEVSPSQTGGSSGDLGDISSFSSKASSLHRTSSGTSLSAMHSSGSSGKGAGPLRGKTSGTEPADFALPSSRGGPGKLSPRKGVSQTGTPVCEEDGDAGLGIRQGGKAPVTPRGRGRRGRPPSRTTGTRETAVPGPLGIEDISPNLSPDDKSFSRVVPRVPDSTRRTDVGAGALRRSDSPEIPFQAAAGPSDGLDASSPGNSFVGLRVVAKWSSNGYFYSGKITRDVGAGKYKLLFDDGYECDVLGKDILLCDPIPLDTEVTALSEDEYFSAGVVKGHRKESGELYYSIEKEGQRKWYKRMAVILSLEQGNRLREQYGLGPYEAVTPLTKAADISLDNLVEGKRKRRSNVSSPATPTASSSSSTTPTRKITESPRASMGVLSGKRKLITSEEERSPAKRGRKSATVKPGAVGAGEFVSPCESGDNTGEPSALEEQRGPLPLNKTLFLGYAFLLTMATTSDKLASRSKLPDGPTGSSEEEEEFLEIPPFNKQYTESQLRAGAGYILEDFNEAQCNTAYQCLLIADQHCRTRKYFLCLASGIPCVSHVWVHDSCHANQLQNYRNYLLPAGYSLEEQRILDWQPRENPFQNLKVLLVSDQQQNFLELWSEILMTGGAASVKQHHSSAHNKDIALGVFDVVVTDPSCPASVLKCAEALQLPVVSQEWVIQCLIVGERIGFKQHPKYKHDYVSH

The term IC50 denotes the concentration at which inhibition is half-maximal. One may read the Kd as a measure of binding affinity in units of concentration. As to `CN1CCN(c2ccnc(C(=O)N3CCC[C@H](C(=O)Nc4cccc(-c5ccc(C(N)=O)cc5)c4)C3)c2)CC1`, the IC50 in data set [1] is more than 100 µM; at TP53-binding protein 1 [5], 8.5 µM; at TP53-binding protein 1 [6] it was 0.47 µM; in data set [7], more than 100 µM; at M-phase phosphoprotein 8 it was more than 100 µM; in data set [9], more than 100 µM. The IC50 (in data set [11]; in data set [13]; on PHD finger protein 19) was more than 100 µM throughout. Besides, the Activity entry with HEK-293T [2] and in the data set with TERT-RPE1 [12] was “Non-Toxic” in each case. In addition, the Kd was 0.85 µM on TP53-binding protein 1 [3] and 0.79 µM on TP53-binding protein 1 [10]. On TP53-binding protein 1 [4], this compound gave a deltaH of -9.2 kcal/mol. Also, the Kinetic_solubility in data set [8] worked out at 194 µM.
With `O=C1NCc2ccc(-c3cccc(NC(=O)[C@H]4CCCN(C(=O)c5cc(N6CCCCC6)ccn5)C4)c3)cc21`, the Activity result in the data set with TERT-RPE1 [14] and with HEK-293T [15] was “Toxic” throughout.
Turning to `CN1CCN(c2ccnc(C(=O)N3CCC[C@H](C(=O)Nc4cccc(-c5ccc6c(c5)C(=O)NC6)c4)C3)c2)CC1`, the half-maximal inhibitory concentration (IC50) in [1] is more than 100 µM; at TP53-binding protein 1 [5], 6.9 µM; at TP53-binding protein 1 [6], 0.46 µM; in data set [7], more than 100 µM; on M-phase phosphoprotein 8, more than 100 µM; in data set [9], more than 100 µM. For the same compound, the IC50 (in data set [11]; in [13]; on PHD finger protein 19) was more than 100 µM each time. Further, the Activity entry with HEK-293T [2] and with TERT-RPE1 [12] was “Non-Toxic” in each case. Moreover, the results for the Kd at TP53-binding protein 1 [3] and at TP53-binding protein 1 [10] were 0.41 µM and 0.17 µM, respectively. The compound further came in with a deltaH at TP53-binding protein 1 [4] of -5.8 kcal/mol. Further, the Kinetic_solubility in [8] was 200 µM.
